Assay results reported in patent publication US7795456B2, “Insecticidal N-substituted sulfoximines” (Dow AgroSciences LLC, priority 2004, dated 2010).

Key:
[1] = test system: fruit fly (Drosophila melanogaster); settings: for FF 25: % mortality at 25 μg/cm2 against fruit fly in dietary tests: 25 μg/cm2, 48 h; for FF SYM: % showing intoxicated symptoms at 25 μg/cm2 against fruit fly in dietary tests: 25 μg/cm2, 4 h
[2] = test system: cotton aphid (Aphis gossypii); assay: Insecticidal test for cotton aphid, foliar spray on squash; settings: for pest or weed control at 200 ppm / pest or weed control at 50 ppm: Aphis gossypii, foliar, 72 h; for pest or weed control at 200 ppm: read-out: CA 200: % control at 200 ppm against cotton aphid in foliar spray tests; for pest or weed control at 50 ppm: read-out: CA 50: % control at 50 ppm against cotton aphid in foliar spray tests
[3] = test system: beet armyworm (Spodoptera exigua); settings: 50 μg/cm2, second-instar larvae, 5 days
[4] = test system: corn earworm (Helicoverpa zea); settings: 50 μg/cm2, second-instar larvae, 5 days
[5] = test system: beet armyworm (Spodoptera exigua); assay: Insecticidal test for beet armyworm in injection assays; settings: 1 h, read-out: BAW SYM: % showing intoxicated symptoms at 10 μg/larva against beet armyworm in injection tests
[6] = test system: green peach aphid (Myzus persicae); assay: Insecticidal test for green peach aphid, foliar spray on cabbage seedlings; settings: rundown assay, 3 days
[7] = test system: sweet potato whitefly (Bemisia tabaci); assay: Insecticidal test for sweet potato whitefly, foliar spray on cotton; settings: Bemisia tabaci, in Gossypium hirsutum, foliar, read-out: SPW 200: % control at 200 ppm against sweet potato whitefly in foliar spray tests

Compound | FF 25: % mortality at 25 μg/cm2 against fruit fly in dietary tests [1] | pest or weed control at 200 ppm [2] [%] | BAW 50: % mortality at 50 μg/cm2 against beet armyworm in dietary tests [3] | CEW 50: % mortality at 50 μg/cm2 against corn earworm in dietary tests [4] | pest or weed control at 50 ppm [2] [%] | other results
CC(C)[C@H]1CCCS1(=O)=NC#N (stereo partly shown) [Compound 31] | G (Inactive) | 90 to 100 | G (Inactive) | G (Inactive) | – | –
CS(=O)(Cc1ccc(Cl)nc1)=N[N+](=O)[O-] (stereo not shown) [Compound 33] | F (Less than 50) | 90 to 100 | G (Inactive) | G (Inactive) | 90 to 100 | FF SYM: % showing intoxicated symptoms at 25 μg/cm2 against fruit fly in dietary tests [1]: F (Less than 50)
COC(=O)N=S1(=O)CCCC1Cc1ccc(Cl)nc1 (stereo not shown) [Compound 7, methyl 2-[(6-chloropyridin-3-yl)methyl]-1-oxidotetrahydro-1H-1λ^4-thien-1-ylidenecarbamate] | G (Inactive) | 80 to 89 | G (Inactive) | G (Inactive) | – | –
CC(C)C1CCCS1(=O)=NC#N (stereo not shown) [Compound 32] | G (Inactive) | 80 to 89 | G (Inactive) | G (Inactive) | – | pest or weed control at 0.01 mg [5]: 50 to 59%
CC(CS(C)(=O)=N[N+](=O)[O-])c1ccc(Cl)nc1 (stereo not shown) [Compound 4, 2-Chloro-5-(1-methyl-2-{methyl(oxido)[oxido(oxo)hydrazono]-λ^4-sulfanyl}ethyl)pyridine] | G (Inactive) | < 50 | G (Inactive) | G (Inactive) | – | pest or weed control at 0.01 mg [5]: < 50%
N#CN=S1(=O)CCCCC1 [Compound 6, 1-Oxidohexahydro-1λ^4-thiopyran-1-ylidenecyanamide] | G (Inactive) | – | G (Inactive) | G (Inactive) | – | –
CC(Cc1ccc(Cl)nc1)CS(C)(=O)=NC#N (stereo not shown) [Compound 2, [3-(6-Chloropyridin-3-yl)-2-methylpropyl](methyl)oxido-λ^4-sulfanylidenecyanamide] | G (Inactive) | 90 to 100 | G (Inactive) | G (Inactive) | 80 to 89 | –
CC[S@](=O)(=N[N+](=O)[O-])[C@H](C)c1ccc(Cl)nc1 [Compound 39] | F (Less than 50) | 90 to 100 | G (Inactive) | G (Inactive) | – | –
N#CN=S1(=O)CCCC1c1ccccc1 (stereo not shown) [Compound 22, (1-oxido-2-phenyltetrahydro-1H-11^4-thien-1-ylidene)cyanamide] | G (Inactive) | 90 to 100 | G (Inactive) | G (Inactive) | 80 to 89 | pest or weed control at 0.01 mg [5]: < 50%
CC(Cc1ccc(Cl)nc1)CS(C)(=O)=N[N+](=O)[O-] (stereo not shown) [Compound 3, 2-chloro-5-(2-methyl-3-{methyl(oxido)[oxido-(oxo)hydrazono]-λ^4-sulfanyl}propyl)pyridine] | G (Inactive) | 80 to 89 | G (Inactive) | G (Inactive) | – | –
CCOc1ccc(S(C)(=O)=NC#N)cn1 (stereo not shown) [Compound 42, (6-Ethoxypyridin-3-yl)(methyl)oxido-λ^4-sulfanylidenecyanamide] | G (Inactive) | 90 to 100 | G (Inactive) | G (Inactive) | 70 to 79 | –
Cc1ccc(CC2CCCS2(=O)=NC#N)cn1 (stereo not shown) [Compound 30] | G (Inactive) | 90 to 100 | G (Inactive) | G (Inactive) | 90 to 100 | –
CC[S@@](=O)(C[C@@H](C)c1ccc(Cl)nc1)=NC#N [Compound 17] | G (Inactive) | 90 to 100 | G (Inactive) | G (Inactive) | 90 to 100 | –
CC[S@](=O)(=N[N+](=O)[O-])[C@@H](C)c1ccc(Cl)nc1 [Compound 40] | G (Inactive) | 80 to 89 | G (Inactive) | G (Inactive) | – | –
CS(=O)(CCc1ccc(Cl)nc1)=N[N+](=O)[O-] (stereo not shown) [Compound 37] | G (Inactive) | 90 to 100 | G (Inactive) | G (Inactive) | 90 to 100 | –
CC(c1ccc(Cl)nc1)S(C)(=O)=N[N+](=O)[O-] (stereo not shown) [Compound 36] | F (Less than 50) | 90 to 100 | G (Inactive) | G (Inactive) | 90 to 100 | FF SYM: % showing intoxicated symptoms at 25 μg/cm2 against fruit fly in dietary tests [1]: F (Less than 50); % Control at ppm, against green peach aphid: 0.049 ([6]; 0.049 ppm): F (Less than 50); % Control at ppm, against green peach aphid: 0.195 ([6]; 0.195 ppm): E (50-59); % Control at ppm, against green peach aphid: 0.78 ([6]; 0.78 ppm): D (60-69); % Control at ppm, against green peach aphid: 3.12 ([6]; 3.12 ppm): C (70-79); % Control at ppm, against green peach aphid: 12.5 ([6]; 12.5 ppm): A (90-100); % Control at ppm, against green peach aphid: 50 ([6]; 50 ppm): A (90-100); % Control at ppm, against cotton aphid: 0.049 ([2]; 0.049 ppm, rundown assay): F (Less than 50); % Control at ppm, against cotton aphid: 0.195 ([2]; 0.195 ppm, rundown assay): F (Less than 50); % Control at ppm, against cotton aphid: 0.78 ([2]; 0.78 ppm, rundown assay): C (70-79); % Control at ppm, against cotton aphid: 3.12 ([2]; 3.12 ppm, rundown assay): A (90-100); % Control at ppm, against cotton aphid: 12.5 ([2]; 12.5 ppm, rundown assay): A (90-100); % Control at ppm, against cotton aphid: 50 ([2]; 50 ppm, rundown assay): A (90-100)
CCS(=O)(=NC#N)C(C)c1ccc(Cl)nc1 (stereo not shown) [Compound 18] | G (Inactive) | 90 to 100 | G (Inactive) | G (Inactive) | 90 to 100 | pest or weed control at 200 ppm [7]: 80 to 89%; pest or weed control at 0.01 mg [5]: < 50%
CC(CS(C)(=O)=NC#N)c1ccc(Cl)nc1 (stereo not shown) [Compound 15] | G (Inactive) | 90 to 100 | G (Inactive) | G (Inactive) | 80 to 89 | –
CC[S@@](=O)(C[C@H](C)c1ccc(Cl)nc1)=NC#N [Compound 16] | G (Inactive) | 90 to 100 | G (Inactive) | G (Inactive) | 90 to 100 | pest or weed control at 0.01 mg [5]: < 50%
CC[S@](=O)(=NC#N)[C@@H](C)c1ccc(Cl)nc1 [Compound 19] | F (Less than 50) | 90 to 100 | G (Inactive) | G (Inactive) | 90 to 100 | pest or weed control at 200 ppm [7]: 70 to 79%
